Laboratory results published in patent US20250059164A1, “IRAK DEGRADERS AND USES THEREOF” (Kymera Therapeutics, Inc., priority 2023, published 2025).

Tests used:
[1] = target: T1, IRAK4 (Homo sapiens, UniProt Q9NWZ3); assay: IRAK4 MSD degradation in OCI-LY10; type: cell-based; settings: OCI-LY10 cells, 24 hrs, Meso Scale Discovery
T1 construct: endogenous in cells; host or cells: OCI-LY10
T1 sequence (Q9NWZ3 1-460): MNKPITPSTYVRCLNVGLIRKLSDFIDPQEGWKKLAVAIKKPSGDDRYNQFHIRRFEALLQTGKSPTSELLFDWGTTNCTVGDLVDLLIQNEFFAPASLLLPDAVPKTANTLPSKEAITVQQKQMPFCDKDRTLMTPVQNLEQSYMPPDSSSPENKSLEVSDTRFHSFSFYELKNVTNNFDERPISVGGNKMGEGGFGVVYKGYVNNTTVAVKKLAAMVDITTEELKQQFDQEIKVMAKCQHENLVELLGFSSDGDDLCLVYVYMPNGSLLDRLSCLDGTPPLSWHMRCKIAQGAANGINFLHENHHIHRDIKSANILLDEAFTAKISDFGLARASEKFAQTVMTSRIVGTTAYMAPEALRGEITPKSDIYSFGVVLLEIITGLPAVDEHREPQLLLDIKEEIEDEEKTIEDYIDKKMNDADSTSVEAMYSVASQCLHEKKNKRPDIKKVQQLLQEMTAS
Outline: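 Remaining IRAK4 protein measured by Meso Scale Discovery electrochemiluminescence sandwich assay on lysates of OCI-LY10 cells. Cells were exposed for 4 to 24 hours (37° C., 5% CO2) to eight 1:3-diluted concentrations starting at 1 to 10 μM. DC50 derived by three-parameter logistic fitting.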

[2] = Rodent pharmacokinetics (rat PK); type: in vivo; settings: po, dosed intravenously or orally by gavage, plasma, read-out: F % (bioavailability)
Protocol: All studies related to handling, care, and treatment of rats in the study were performed according to the guidelines approved by the Institutional Animal Care and Use Committee (IACUC). All rats had access to food and water ad libitum. Rats were dosed intravenously or orally by gavage. Whole blood was collected from the jugular vein immediately prior to dosing and at 5 (intravenously administered drugs only), 15, and 30 min and 1, 2, 4, 8, and 24 h after drug administration. After sampling, whole blood was centrifuged at 4,000×g for 5 min at 4° C. to obtain plasma.
The letter codes for bioavailability (F %) include: A (≥5%) and B (≤5%).

| DC50 [1] [nM] | bioavailability [2] [%] | SMILES |
| --- | --- | --- |
| > 200 | ≤ 5 | COc1cc2nc([C@H]3CC[C@H](CN4CC[C@H](c5cccc6c5n(C)c(=O)n6C5CCC(=O)NC5=O)C(F)(F)C4)CC3)sc2cc1NC(=O)c1cncc(C#N)c1 (single isomer, unassigned) [I-140] |
| < 10 | ≤ 5 | COc1cc2nn([C@H]3CC[C@H](CN4CCC5(CCN(c6cccc7c6n(C)c(=O)n7C6CCC(=O)NC6=O)CC5)C(F)(F)C4)CC3)cc2cc1NC(=O)c1cncc(C)c1 (stereo partly drawn) [I-257] |
| < 10 | ≤ 5 | Cn1c(=O)n(C2CCC(=O)NC2=O)c2cccc([C@@H]3CCN(C[C@H]4CC[C@H](c5nc6cc(C(C)(C)O)c(NC(=O)c7cncc(C#N)c7)cc6s5)CC4)C[C@H]3F)c21 (single isomer, unassigned) [I-229] |
| < 10 | ≥ 5 | Cn1c(=O)n(C2CCC(=O)NC2=O)c2cccc(N3CCN(C[C@H]4CC[C@H](n5cc6cc(NC(=O)c7cncc(C(F)(F)F)n7)ccc6n5)CC4)C[C@@H]3C(F)(F)F)c21 (single isomer, unassigned) [I-313] |
| < 10 | ≤ 5 | Cn1c(=O)n(C2CCC(=O)NC2=O)c2cccc([C@@H]3CCN(C[C@H]4CC[C@H](c5cn6cc(NC(=O)c7cccc(C(F)(F)F)c7)c(C(C)(C)O)cc6n5)CC4)C[C@H]3F)c21 (stereo partly drawn) [I-276] |
| < 10 | ≤ 5 | Cn1c(=O)n(C2CCC(=O)NC2=O)c2cccc([C@@H]3CCN(C[C@H]4CC[C@H](n5cc6cc(NC(=O)c7cncc(OC(F)F)n7)ccc6n5)CC4)C[C@H]3F)c21 (stereo partly drawn) [I-339] |
| < 10 | ≤ 5 | Cn1c(=O)n(C2CCC(=O)NC2=O)c2cccc([C@@H]3CCN(C[C@H]4CC[C@H](n5cc6cc(NC(=O)c7cncc(C(F)(F)F)n7)c(C#N)cc6n5)CC4)C[C@H]3F)c21 (stereo partly drawn) [I-172] |
| < 10 | ≤ 5 | Cn1c(=O)n(C2CCC(=O)NC2=O)c2cccc([C@@H]3CCN(C[C@H]4CC[C@H](n5cc6cc(NC(=O)c7cncc(C(C)(C)C)n7)ncc6n5)CC4)C[C@H]3F)c21 (stereo partly drawn) [I-322] |
| < 10 | ≤ 5 | CC(C)(O)c1cc2nn([C@H]3CC[C@H](CN4CCC5(CCN(c6cccc7c(N8CCC(=O)NC8=O)cncc67)CC5)C(F)(F)C4)CC3)cc2cc1NC(=O)c1cncc(C#N)c1 [I-400] |
| > 200 | ≤ 5 | COc1cc2nn([C@H]3CC[C@H](CN4CCC5(CCN(c6cccc7c6n(C)c(=O)n7C6CCC(=O)NC6=O)CC5)C(F)(F)C4)CC3)cc2cc1C(=O)Nc1cccc(C(F)(F)F)n1 (stereo partly drawn) [I-396] |
| < 10 | ≤ 5 | Cn1c(=O)n(C2CCC(=O)NC2=O)c2cccc([C@@H]3CCN(C[C@H]4CC[C@H](n5cc6cc(NC(=O)c7cncc(C(F)(F)F)n7)c(C(F)F)cc6n5)CC4)C[C@H]3F)c21 (stereo partly drawn) [I-214] |
| 10 to 100 | ≤ 5 | Cn1nc(N2CCC(=O)NC2=O)c2cccc(N3CCC4(CCN(C[C@H]5CC[C@H](n6cc7cc(NC(=O)c8cncc(C#N)c8)c(C(C)(C)O)cc7n6)CC5)CC4(F)F)CC3)c21 [I-404] |
| 10 to 100 | ≥ 5 | Cn1c(=O)n(C2CCC(=O)NC2=O)c2cccc(N3CC4(CCN(C[C@H]5CC[C@H](c6nc7cc(C(C)(C)O)c(NC(=O)c8cccc(C(F)(F)F)n8)cc7s6)CC5)CC4(F)F)C3)c21 (stereo partly drawn) [I-409] |
| < 10 | ≥ 5 | Cn1c(=O)n(C2CCC(=O)NC2=O)c2cccc(N3CCC4(CCN(C[C@H]5CC[C@H](n6cc7cc(NC(=O)c8cncc(C(F)(F)F)c8)c(C(C)(C)O)cc7n6)CC5)CC4(F)F)CC3)c21 (stereo partly drawn) [I-365] |
| < 10 | ≤ 5 | COc1ccc2c(c1[C@H]1CCN(C[C@H]3CC[C@H](n4cc5cc(NC(=O)c6cncc(C(F)(F)F)n6)ccc5n4)CC3)C[C@@H]1F)n(C)c(=O)n2C1CCC(=O)NC1=O (stereo partly drawn) [I-352] |
| 10 to 100 | ≤ 5 | Cn1c(=O)n(C2CCC(=O)NC2=O)c2cccc(N3CCC4(CCN(C[C@H]5CC[C@H](c6nc7cc(C(C)(C)O)c(NC(=O)c8cccc(C(F)(F)F)n8)cc7s6)CC5)CC4(F)F)CC3)c21 (stereo partly drawn) [I-407] |
| < 10 | ≤ 5 | COc1cc2nn([C@H]3CC[C@H](CN4CC[C@@H](c5cccc6c5n(C)c(=O)n6C5CCC(=O)NC5=O)[C@H](F)C4)CC3)cc2cc1C(=O)Nc1cncc(C(F)(F)F)c1 (stereo partly drawn) [I-283] |
| > 200 | ≤ 5 | Cn1c(=O)n(C2CCC(=O)NC2=O)c2cccc([C@@H]3CCN(C[C@H]4CC[C@H](n5cc6cc(NC(=O)c7ccnc(C(F)(F)F)n7)ccc6n5)CC4)C[C@H]3F)c21 (stereo partly drawn) [I-190] |

| DC50 [1] [nM] | bioavailability [2] [%] | SMILES |
| --- | --- | --- |
| < 10 | ≤ 5 | Cn1c(=O)n(C2CCC(=O)NC2=O)c2cccc([C@@H]3CCN(C[C@H]4CC[C@H](n5cc6cc(NC(=O)c7cncc(C(F)(F)F)n7)cc(F)c6n5)CC4)CC3(F)F)c21 (stereo partly drawn) [I-375] |
|  | ≥ 5 | CN(C[C@H]1CC[C@H](c2nc3cc(C(C)(C)O)c(NC(=O)c4cccc(C(F)(F)F)c4)cc3s2)CC1)[C@@H]1CCN(c2cccc3c2n(C)c(=O)n3C2CCC(=O)NC2=O)C[C@H]1F (single isomer, unassigned) [I-176] |
|  | ≤ 5 | COc1cn2nc([C@H]3CC[C@H](CN(C)[C@H]4CCN(c5cccc6c5n(C)c(=O)n6C5CCC(=O)NC5=O)C[C@H]4F)CC3)cc2cc1NC(=O)c1cncc(C(F)(F)F)n1 (single isomer, unassigned) [I-219] |
|  | ≤ 5 | COc1cn2nc([C@H]3CC[C@H](CN4CC[C@@H](c5cccc6c5n(C)c(=O)n6C5CCC(=O)NC5=O)[C@H](F)C4)CC3)cc2cc1NC(=O)c1cncc(C(F)(F)F)n1 (stereo partly drawn) [I-166] |
|  | ≤ 5 | CN(C[C@H]1CC[C@H](n2cc(NC(=O)c3cnn4ccc(N5CCCC5)nc34)c(C(F)F)n2)CC1)[C@H]1CCN(c2cccc3c2n(C)c(=O)n3C2CCC(=O)NC2=O)C[C@H]1F (single isomer, unassigned) [I-21] |
|  | ≤ 5 | Cn1c(=O)n(C2CCC(=O)NC2=O)c2cccc(N3CC[C@H](CN4CCN(C[C@H]5CC[C@H](n6cc(NC(=O)c7cnn8ccc(N9C[C@H]%10C[C@@H]9CO%10)nc78)c(C(F)F)n6)CC5)CC4)C3)c21 (stereo partly drawn) [I-114] |
|  | ≤ 5 | Cn1c(=O)n(C2CCC(=O)NC2=O)c2cccc(N3CC4(CCN(C[C@H]5CC[C@H](n6cc7cc(NC(=O)c8cncc(C(F)(F)F)n8)ncc7n6)CC5)CC4(F)F)C3)c21 (stereo partly drawn) [I-221] |
|  | ≥ 5 | CN(C[C@H]1CC[C@H](c2nc3cc(C(C)(C)O)c(NC(=O)c4cccc(C(F)(F)F)n4)cc3o2)CC1)[C@H]1CCN(c2cccc3c2n(C)c(=O)n3C2CCC(=O)NC2=O)C[C@H]1F (stereo partly drawn) [I-178] |
|  | ≥ 5 | CN(C[C@H]1CC[C@H](c2nc3cc(C(C)(C)O)c(NC(=O)c4cccc(C(F)(F)F)c4)cc3s2)CC1)[C@H]1CCN(c2cccc3c2n(C)c(=O)n3C2CCC(=O)NC2=O)C[C@@H]1F (single isomer, unassigned) [I-177] |
|  | ≥ 5 | CN(C[C@H]1CC[C@H](c2nc3cc(C(C)(C)O)c(NC(=O)c4cncc(C(F)(F)F)c4)cc3s2)CC1)[C@H]1CCN(c2cccc3c2n(C)c(=O)n3C2CCC(=O)NC2=O)C[C@@H]1F (single isomer, unassigned) [I-160] |
|  | ≤ 5 | Cn1c(=O)n(C2CCC(=O)NC2=O)c2cccc([C@H]3C[C@H](COC4CCN(C[C@H]5CC[C@H](n6cc(NC(=O)c7cnn8ccc(N9C[C@H]%10C[C@@H]9CO%10)nc78)c(C(F)F)n6)CC5)CC4)C3)c21 (stereo partly drawn) [I-267] |
|  | ≤ 5 | Cn1nc(C2CCC(=O)NC2=O)c2cccc(N3CCC4(CCN(C[C@H]5CC[C@H](n6cc7cc(NC(=O)c8cncc(C#N)c8)c(C(C)(C)O)cc7n6)CC5)CC4(F)F)CC3)c21 (stereo partly drawn) [I-220] |
| 10 to 100 |  | COc1cc2nn([C@H]3CC[C@H](CN4CCC5(CCN(c6cccc7c6n(C)c(=O)n7C6CCC(=O)NC6=O)CC5)C(F)(F)C4)CC3)cc2cc1NC(=O)c1cccc(C(F)(F)F)c1 (stereo partly drawn) [I-151] |
| < 10 |  | CN(C[C@H]1CC[C@H](n2cc3cc(NC(=O)c4cccc(C(F)(F)F)n4)c(C#N)cc3n2)CC1)[C@@H]1CCN(c2cccc3c2n(C)c(=O)n3C2CCC(=O)NC2=O)C[C@@H]1F (stereo partly drawn) [I-10] |
| < 10 |  | COc1ccc2c(c1N1CC[C@@H](N(C)C[C@H]3CC[C@H](n4cc(NC(=O)c5cnn6cccnc56)c(C(F)F)n4)CC3)[C@H](F)C1)n(C)c(=O)n2C1CCC(=O)NC1=O (single isomer, unassigned) [I-152] |
| < 10 |  | C[C@H]1CN(c2ccn3ncc(C(=O)Nc4cn([C@H]5CC[C@H](CN(C)[C@H]6CCN(c7cccc8c7n(C)c(=O)n8C7CCC(=O)NC7=O)C[C@@H]6F)CC5)nc4C(F)F)c3n2)CCO1 (stereo partly drawn) [I-25] |
| < 10 |  | Cc1nn(C2CCC(=O)NC2=O)c2cccc(N3CC(N4CCN([C@H]5CC[C@H](n6cc(NC(=O)c7cnn8ccc(N9C[C@H]%10C[C@@H]9CO%10)nc78)c(C(F)F)n6)CC5)CC4)C3)c12 (stereo partly drawn) [I-54] |
